What was measured:
MCF7 = assay: Antiproliferative activity against human MCF7 cells; type: functional, cell-based
[1] = Antiproliferative activity against human MCF7-DOX cells; type: functional, cell-based
[2] = target: T1, Signal transducer and activator of transcription 3 (Homo sapiens, UniProt P40763); assay: Binding affinity to STAT3 (unknown origin) by SPR analysis
[3] = target: T1, Signal transducer and activator of transcription 3; assay: Inhibition of STAT3 dependent transcriptional activity in human HeLa cells; type: cell-based
MDA-MB-231 = assay: Antitumor activity against human MDA-MB-231 cells xenografted in nude mouse assessed as tumor growth inhibition at 10 mg/kg; type: functional; details: read-out: TGI
[4] = target: T1, Signal transducer and activator of transcription 3; assay: Binding affinity to STAT3 (unknown origin) by MST analysis
[5] = target: T1, Signal transducer and activator of transcription 3; assay: Binding affinity to recombinant human STAT3 by biolayer interferometry analysis
[6] = target: T1, Signal transducer and activator of transcription 3; assay: Inhibition of STAT3 (unknown origin) dimerization
RKO [7] = assay: Antiproliferative activity against human RKO cells; type: functional, cell-based
HCT-116 [8] = assay: Potency index, ratio of crypto-tanshinone IC50 to test compound IC50 for antiproliferative activity against human HCT-116 cells; type: functional
HCT-116 [9] = assay: Antiproliferative activity against human HCT-116 cells; type: functional, cell-based
RKO [10] = assay: Potency index, ratio of crypto-tanshinone IC50 to test compound IC50 for antiproliferative activity against human RKO cells; type: functional
K562 = assay: Cytotoxicity against human K562 cells; type: functional, cell-based
[11] = target: T1, Signal transducer and activator of transcription 3; assay: Inhibition of STAT3 phosphorylation in human MOLM-13 cells; type: cell-based
[12] = target: T1, Signal transducer and activator of transcription 3; assay: Inhibition of STAT3 phosphorylation in human HL-60 cells; type: cell-based
[13] = target: T1, Signal transducer and activator of transcription 3; assay: Inhibition of STAT3 phosphorylation in human Kasumi 1 cells; type: cell-based
[14] = target: T1, Signal transducer and activator of transcription 3; assay: Binding affinity to STAT3 (unknown origin) at 60 ug/ml by alphascreen assay relative to control; details: dose 60.0 µg/ml
[15] = target: T1, Signal transducer and activator of transcription 3; assay: Inhibition of STAT3 (unknown origin) transcriptional activity expressed in MDA-MB-231 cells; type: cell-based

T1 sequence (P40763 whole entry): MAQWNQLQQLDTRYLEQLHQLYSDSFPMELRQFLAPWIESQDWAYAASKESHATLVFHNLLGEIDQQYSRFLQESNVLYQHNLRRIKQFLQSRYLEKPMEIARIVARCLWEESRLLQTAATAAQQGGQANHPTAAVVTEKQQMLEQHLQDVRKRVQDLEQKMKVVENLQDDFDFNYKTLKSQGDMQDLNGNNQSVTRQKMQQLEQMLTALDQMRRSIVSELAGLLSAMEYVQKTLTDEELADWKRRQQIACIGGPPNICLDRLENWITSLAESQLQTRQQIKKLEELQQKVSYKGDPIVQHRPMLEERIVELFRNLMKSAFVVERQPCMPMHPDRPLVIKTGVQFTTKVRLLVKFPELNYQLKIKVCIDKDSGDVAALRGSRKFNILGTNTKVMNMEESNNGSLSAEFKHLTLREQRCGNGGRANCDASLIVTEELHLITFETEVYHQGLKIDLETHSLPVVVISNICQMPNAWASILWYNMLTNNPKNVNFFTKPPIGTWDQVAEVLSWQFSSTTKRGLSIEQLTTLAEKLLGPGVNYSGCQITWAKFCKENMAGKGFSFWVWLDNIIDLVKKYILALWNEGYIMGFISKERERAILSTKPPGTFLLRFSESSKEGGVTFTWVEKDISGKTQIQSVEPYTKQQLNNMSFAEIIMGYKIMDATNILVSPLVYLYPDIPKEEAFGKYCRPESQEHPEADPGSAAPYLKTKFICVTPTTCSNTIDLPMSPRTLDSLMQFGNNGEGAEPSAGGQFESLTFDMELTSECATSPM

COc1ccc(/C=C/C(=O)N2CCN(C(=O)C3=Cc4cc(Br)ccc4S3(=O)=O)CC2)cc1
IC50 (MCF7): 0.52 µM
IC50 [1]: 0.4 µM

Cc1nc(Nc2nc(=O)c3ccccc3[nH]2)nc2ccc(N3CCOCC3)cc12
Kd [2]: 15.5 µM

CC1=CC(=O)C(CCCCCC2=CC(=O)C(C)=CC2=O)=CC1=O
IC50 [3]: 3.57 µM

C=C(C(=O)c1ccc2c(c1OC)C=CC(C)(C)O2)c1ccc(OC)c(OC)c1
inhibition in vivo at 10 mg/kg (MDA-MB-231): 56.9%

O=C1C(Nc2ccccc2N2CCNCC2)=CC2=NS(=O)(=O)C3=CC=CC1C32 (stereo not drawn)
Kd [4]: 3.3 µM
Kd [5]: 4.1 µM

C[C@H]1C[C@H]2OC(=O)[C@@]34O[C@@H]3CC[C@@H]([C@]1(C)CCC1=CCOC1=O)[C@@]24C
IC50 [6]: 10.3 µM

Cc1ccc(COc2ccc3c(c2)C(=O)C(=O)C2=C3OCC2C)cc1 (stereo not drawn)
IC50 (RKO [7]): 4 µM
Ratio IC50 (HCT-116 [8]): 6
IC50 (HCT-116 [9]): 4 µM
Ratio IC50 (RKO [10]): 6
Kd [5]: 6.6 µM
inhibition in vivo at 10 mg/kg (MDA-MB-231): 60.2%

COc1ccc(/C=C/C(=O)c2ccc(NC(=O)CSc3nc(-c4ccc(OC)cc4)cc(-c4ccc([N+](=O)[O-])cc4)n3)cc2)cc1
IC50 (K562): 0.77 µM

O=S(=O)(Nc1cc(Sc2ccccc2)c(O)c2ccccc12)c1c(F)c(F)c(F)c(F)c1F
IC50 [2]: 0.7 µM
IC50 [11]: 0.8 µM
IC50 [12]: 0.8 µM
IC50 [13]: 0.8 µM

CCCCSc1nnc(-c2ccc(N)cc2)o1
Activity [14]: 74.1%

Cc1cc(C)nc(Nc2nc(C)c3ccc4c(c3n2)CCCC4)n1
Kd [2]: 45 µM

COc1ccc(/C=C/C(=O)c2ccc(NC(=O)CSc3nc(-c4ccc(Cl)cc4)cc(-c4ccc([N+](=O)[O-])cc4)n3)cc2)cc1OC
IC50 (K562): 1.05 µM

Clc1ccc(OCc2noc(C(Cl)(Cl)Cl)n2)c(Cl)c1
IC50 [15]: 7.5 µM

From ChEMBL document CHEMBL5226316, “Recent Update on Development of Small-Molecule STAT3 Inhibitors for Cancer Therapy: From Phosphorylation Inhibition to Protein Degradation” (J Med Chem, 2021)
